{
  "source": "patent US12600715B2",
  "about": "“Soluble guanylate cyclate activators for treating systemic sclerosis” (Boehringer Ingelheim International GmbH, priority 2022, dated 2026)",
  "key": {"[1]": {"system": "primary human microvascular endothelial cells", "assay": "Hypoxia assay: hypoxia induced TGFβ2 production (MSD ELISA)", "format": "cell-based", "procedure": "The assay uses the following materials and reagents: • Human dermal microvascular endothelial cells are obtained from (Lonza, 2543). • All experiments are performed with cells between passage 4 and passage 8. […]\nCulturing endothelial cells: Dermal endothelial cells from each of the indicated donors are grown in T175 flasks with normal culturing media in 37° C./5% CO2 incubator. […] Cells are counted and plated into new T175 for further expansion or plated for the experiment as described in the protocol below. […]\n• Day 0: Cells are trypsinized, counted and plated such that each well contains 8×10^3 cells and 100 μl of media and put in an incubator overnight (37° C.) • Day 1: Media is aspirated and replaced with basal media left at 37° C. overnight-24 hours • Day 2: Basal media is replaced with 90 μL of fresh basal media. […]\nAfter treatment plates are left in 37° C. […] Supernatant is collected and TGFβ2 μlevels are measured using MSD ELISA.\nDermal microvascular endothelial cells from three normal donors are plated and grown to confluence. […] Cells and supernatants are collected after 48 hours and TGFβ2 μlevels are measured by MSD-ELISA. MSD plates are read using the MSD QuickPlex SQ 120 Instrument. […]"}, "[2]": {"system": "bleomycin-induced dermal fibrosis", "format": "in vivo"}, "[3]": {"system": "bleomycin-induced pulmonary fibrosis", "assay": "Bleomycin-induced pulmonary fibrosis, therapeutic dosing", "format": "in vivo, C57Bl/6 mice", "procedure": "Compounds and formulation: Compound: Compound 114 (sample ID 30295026), batch 5 and EX00076637 (EX76637/riociguat), sample ID 17810950, batch 5 are both dissolved in Methylcellulose solution. The concentration is 10 mg/kg, 3 mg/kg and 1 mg/kg in a volume of 0.1 ml p.o. Nintedanib ethanesulfonate is prepared freshly every second day. The concentration is 60 mg/kg in a volume of 0.1 ml p.o. Hydroxyproline assay: The amount of collagen protein in skin samples is determined via hydroxyproline assay. After digestion of full skin thickness punch biopsies (Ø 3 mm) derived from the upper back in 6 M HCl for three hours at 120° C., the pH of the samples is adjusted to 6 with 6 M NaOH. For lungs, the middle lobe is analyzed. Afterwards, 0.06 M chloramine T is added to each sample and incubated for 20 min at room temperature. Next, 3.15 M perchloric acid and 20% p-dimethylaminobenzaldehyde are added and samples are incubated for additional 20 min at 60° C. The absorbance is determined at 557 nm with a Spectra MAX 190 microplate spectrophotometer using a standard curve generated with purified type I collagen (Sigma-Aldrich). In the model of bleomycin-induced lung fibrosis, fibrosis is induced by a single intratracheal injection of 50 μl bleomycin at day 0. Mice injected with equal volumes of 0.9% NaCl served as controls. The outcome is analyzed after 28 days. Treatment is started at day 15 post intratracheal installation of bleomycin and thus at a timepoint, when fibrosis is already preestablished. […] Histological evaluation of pulmonary fibrosis: Whole lungs are excised, fixed in 4% formalin for 6 h and embedded in paraffin. […] are cut and stained with Sirius Red. Images are captured using a Hamamatsu nano sumo S60 slide scanner microscope (Hamamatsu, Herrsching am Ammersee, Germany). Histological changes of pulmonary fibrosis are quantified by Ashcroft Scoring. The analysis is performed in a blinded manner. […] Statistics: All data are presented as median ±range, and differences between the groups are tested for their statistical significance by Mann-Whitney U non-parametric test for non-related samples."}, "[4]": {"system": "platelet-rich plasma (PRP) from healthy donor volunteers", "assay": "Activation of PRP by ADP and CXCL4 detection by ELISA", "format": "cell-based, human", "settings": "for ADP-induced CXCL4 production: PRP of 10 donors", "procedure": "• Compound 114 (sample ID: 30295026, batch: 5) • EX0076637 (sample ID: 17810950, batch: 5) • Nintedanib esilate (Boehringer Ingelheim, Manufacture #67653, lot #1078235) • EX0000076 (sample ID: 15614118, batch: 1) • Blood from healthy donor volunteers • Plastic blood collection tubes with sodium citrate (BD biosciences, 363083) • 50 ml conical tube (Corning, 430828) • BSA solution, 30% in saline, fatty acid free, aseptically filled (Sigma, A9205) • ADP (Sigma, 01905-250MG-F) • Tyrode's buffer (Sigma, T2397) • HEPES (Gibco, 15630-080) • DMSO (Sigma, D2650) • 1 ml deep well plate (Thermo Scientific, 260251) • Sterile 0.22 um PVDF filter plate (Millipore, MAGVS2210) • 96 well microplate (Thermo Scientific, 249946) • CXCL4 ELISA kit (Abcam, ab189573 and R&D systems, DPF40)\nBuffer preparation: HEPES-Tyrode BSA buffer: Tyrode's buffer supplemented with 0.35% BSA and 5 mM HEPES.\nGenerating platelet-rich plasma (PRP): Blood is collected from healthy donor volunteers, into plastic sodium citrate tubes. The first two collected tubes are discarded. The remaining blood is processed within 30 mins of blood drawing. The blood is poured into 50 ml conical tubes without exceeding 35 ml per tube and centrifuged at 200×g for 16 minutes at room temperature with acceleration set at half of maximum speed and deceleration off. After centrifugation, the top layer (PRP) is carefully transferred to a new tube by avoiding the buffy coat. The PRP is rested at room temperature for 5-15 minutes. The PRP is then ready to use for experiment as described in protocol below.\n(§1) Preparation of Compound: 5.2 mg of Compound 114 is dissolved in […] of 100% DMSO at a concentration of 20 mM. The compound solution is then diluted to 10 mM in 100% DMSO. 10 mM of the compound solution is then diluted to 1 mM and 100 μM in 100% DMSO and then secondarily diluted to 100 μM, 10 μM, and 1 μM in HEPES-Tyrode BSA buffer, making 10× stock solutions.\nas §1, with “Preparation of Compound 114 and EX 76637: 5.2 mg” for “Preparation of Compound: 5.2 mg”, “of 20 mM. 2.3 mg of EX 76637 is dissolved in 109 μl of 100% DMSO at a concentration of 50 mM. The” for “of 20 mM. The”, “and […] in 100%” for “and 100 μM in 100%”\nPreparation of nintedanib: 2.9 mg of nintedanib is dissolved in 446.3 μl of 100% DMSO at a concentration of 10 mM. The compound solution is then diluted to 100 μM in 100% DMSO. 100 μM of the compound solution is then diluted to […] in HEPES-Tyrode BSA buffer, making 10× stock solutions.\nPreparation of EX 00000776 (MMF): 2.3 mg of EX 00000776 is dissolved in 530.5 μl of 100% DMSO at a concentration of 10 mM. The compound solution is then diluted to 5 mM in 100% DMSO. 5 mM of the compound solution is then diluted to 50 µM in HEPES-Tyrode BSA buffer, making 10× stock solutions.\nADP is dissolved in distilled water at concentration of 100 mM. 100 mM ADP are further diluted in HEPES-Tyrode BSA buffer to 10 mM and then secondarily diluted to 100 μM in HEPES-Tyrode BSA buffer, making a 10× stock.\nEighty or forty microliters of PRP is added into a well of a 1 ml deep well plate containing 560 μl or 280 μl of HEPES-Tyrode BSA buffer. Eighty or forty microliters of the 10× compound solution is added per well and incubated at 37° C./5% CO2 for 30 mins prior to addition of ADP. Eighty or forty microliters of 100 μM ADP is added per well and the plate incubated at 37° C./5% CO2 for 5 mins. After 5 minutes of incubation, 300 microliters per well of stimulated PRP is transferred to a sterile 0.22 um PVDF 96-well filter plate. A 96 well microplate is placed under the filter plate to collect supernatant after centrifugation at 1100 rpm for 5 mins. […]"}, "[5]": {"settings": "60 mg/kg qd for the last three weeks, vs bleomycin/vehicle mice"}, "[6]": {"settings": "treatment initiated two weeks after instillation of bleomycin until end of experiment"}},
  "note": "Entries after “also recorded” stand apart in the source; their conditions may differ. Where two headings read alike, the source gives them in different places.",
  "data": [
    {"smiles": "CCOc1c(C(=O)O)cnn1-c1cccc(-c2cccc(C)c2OCc2ccc3c(c2C)CCN(C2CCOCC2)C3)n1", "note": "[Compound 114]", "values": [
      {"measurement": "hypoxia-driven TGFβ2 production, statistical significance of reduction", "setting": "[1]; 10 μM Compound 114, hypoxia 1% O2", "value": "Statistically significant reduction"},
      {"measurement": "hypoxia-induced TGFβ2 production", "setting": "[1]; hypoxia 1% O2, 48 hrs, ODQ, supernatant, cells from 3 donors", "value": "inhibits hypoxia-induced TGFβ2 levels; also recorded: reduced hypoxia-driven TGFβ2 production in a concentration-dependent manner"},
      {"measurement": "bleomycin-induced dermal fibrosis", "setting": "[2]; doses of 1, 3 or 5 mg/kg for the last two weeks", "value": "also ameliorated bleomycin-induced dermal fibrosis"},
      {"measurement": "effects on dermal fibrosis compared with nintedanib", "setting": "[2]; doses of 1, 3 or 5 mg/kg vs nintedanib 60 mg/kg qd", "value": "within the range of those observed with nintedanib"},
      {"measurement": "dose-dependency of effect on dermal fibrosis", "setting": "[2]; doses of 1, 3 or 5 mg/kg, trends for dermal thickness and myofibroblast counts", "value": "no clear dose-dependency was observed"},
      {"measurement": "fibrotic readouts of pulmonary fibrosis", "setting": "[3]; doses of 1, 3 or 10 mg/kg", "value": "significantly improved the fibrotic readouts"},
      {"measurement": "dose trend for the Ashcroft score", "setting": "[3]; doses of 1, 3 or 10 mg/kg, differences did not reach statistical significance", "value": "tendency towards more pronounced effects with higher doses"},
      {"measurement": "ADP-induced CXCL4 production", "setting": "[4]; 0.1 μM, 10 μM ADP", "value": "reduced ADP-induced CXCL4 production in 9 out of 10 donors"},
      {"measurement": "ADP-induced CXCL4 production", "setting": "[4]; 1 μM and 10 μM, 10 μM ADP", "value": "attenuated the ADP-induced CXCL4 production in all 10 donors"},
      {"measurement": "ADP-induced CXCL4 production, percentage of Max of all donors", "setting": "[4]; 10 μM, 1 μM, 0.1 μM, 10 μM ADP, compared to ADP/DMSO", "value": "significantly reduced ADP-induced CXCL4 production in a dose-dependent manner"},
      {"measurement": "potency/efficacy on ADP-induced CXCL4 production relative to nintedanib, mycophenolate (MMF) and riociguat", "setting": "[4]; FIG. 5", "value": "more potent/more efficacious"}
    ]},
    {"smiles": "COC(=O)N(C)c1c(N)nc(-c2nn(Cc3ccccc3F)c3ncccc23)nc1N", "note": "[EX76637, riociguat]", "values": [
      {"measurement": "bleomycin-induced dermal fibrosis", "setting": "[2]; doses of 1 mg/kg", "value": "also ameliorated bleomycin-induced dermal fibrosis"},
      {"measurement": "effects on dermal fibrosis compared with Compound 114", "setting": "[2]; doses of 1 mg/kg", "value": "comparable to those of Compound 114"},
      {"measurement": "bleomycin-induced pulmonary fibrosis", "setting": "[3]; 1 mg/kg bid p.o.", "value": "also ameliorated bleomycin-induced pulmonary fibrosis"}
    ]},
    {"smiles": "COC(=O)c1ccc2c(c1)NC(=O)/C2=C(\\Nc1ccc(N(C)C(=O)CN2CCN(C)CC2)cc1)c1ccccc1", "note": "[nintedanib, Nintedanib ethanesulfonate]", "values": [
      {"measurement": "dermal thickness", "setting": "[2]; [5]", "value": "reduced"},
      {"measurement": "hydroxyproline content (skin)", "setting": "[2]; [5]", "value": "lower"},
      {"measurement": "myofibroblast counts", "setting": "[2]; [5]", "value": "decreased"},
      {"measurement": "Ashcroft scores", "setting": "[3]; [6]", "value": "reduced"},
      {"measurement": "collagen-covered area", "setting": "[3]; [6]", "value": "reduced"},
      {"measurement": "hydroxyproline content (lung)", "setting": "[3]; [6]", "value": "reduced"},
      {"measurement": "effect on ADP-induced CXCL4 production", "setting": "[4]; standards of care, 10 μM ADP", "value": "ineffective; also recorded: Minimal to no effect"}
    ]},
    {"smiles": "COC(=O)N(C)c1c(N)nc(-c2nn(Cc3ccccc3F)c3ncccc23)nc1N", "note": "[riociguat]", "values": [
      {"measurement": "effect on ADP-induced CXCL4 production", "setting": "[4]; doses equivalent to Compound 114, 10 μM ADP", "value": "minimal effect; also recorded: Minimal to no effect"}
    ]}
  ]
}
